Molecular target: T1, human α2-GABAA receptor (BZD site, membrane protein of HEK293 cells) (Homo sapiens, UniProt P18507+P47869)
T1 construct: expressed in transfected cells
Test: Radioligand competitive binding assay (3H-flunitrazepam) at the BZD site of the α2-GABAA receptor
Conditions: competition with 1 nM 3H-flunitrazepam; Ki calculated from IC50; read-out: α2 Ki

With CCn1cnc2c(-c3ccc(F)c(-c4cc5c(cc4OC)N(C)C(=O)CO5)c3)cnnc21 [Example 42, 7-(5-(7-Ethyl-7H-imidazo[4,5-c]pyridazin-4-yl)-2-fluorophenyl)-6-methoxy-4-methyl-2H-benzo[b][1,4]oxazin-3(4H)-one] the Ki was 2.92 nM.
CCN1C(=O)COc2cc(-c3cc(-c4cnnc5c4ncn5CC)ccc3F)c(OC)cc21 [Example 31, 4-Ethyl-7-(5-(7-ethyl-7H-imidazo[4,5-c]pyridazin-4-yl)-2-fluorophenyl)-6-methoxy-2H-benzo[b][1,4]oxazin-3(4H)-one] was tested, and the Ki was 6.85 nM.
COc1cc2c(cc1-c1cc(-c3cnnc4c3ncn4C(C)C)ccc1F)OCC(=O)N2C [Example 36, 7-(2-Fluoro-5-(7-isopropyl-7H-imidazo[4,5-c]pyridazin-4-yl)phenyl)-6-methoxy-4-methyl-2H-benzo[b][1,4]oxazin-3(4H)-one] was tested, and the Ki was 5.73 nM.
For CCn1cnc2c(-c3ccc(F)c(-c4cc5oc(=O)n(C)c5cc4OC)c3)cnnc21 [Example 87, 6-(5-(7-Ethyl-7H-imidazo[4,5-c]pyridazin-4-yl)-2-fluorophenyl)-5-methoxy-3-methylbenzo[d]oxazol-2(3H)-one], the Ki was 3.38 nM.
CCn1cnc2c(-c3ccc(F)c(-c4cc5c(cc4OC)N(C)C(=O)C5)c3)cnnc21 [Example 161, 5-(5-(7-Ethyl-7H-imidazo[4,5-c]pyridazin-4-yl)-2-fluorophenyl)-6-methoxy-1-methyldihydro-2-one] gave a Ki of 8.7 nM.
